“Also recorded” adds a separate entry of the source.
How the values were obtained:
Assay type in all cases: in vivo, cynomolgus monkey (Macaca fascicularis)
[1] = test system: INFγ inducible proteins in serum and plasma; assay: Rules-Based Medicine (RBM) human MAP multiplex protein profiling in serum and plasma; details: monkey #A60055
From the text: To obtain biomarkers predicting cardiovascular adverse effect of tested compounds/drugs, expression levels of proteins have been analysed in cynomolgus monkey serum and plasma from the present analysis using human Multi-Analyte Profile (MAP) Technology. Human MAP could be used to measure protein levels of more than 80 antigens in monkey serum and plasma (Rules-Based Medicine Inc (RBM®), Austin, Tex. USA).
Soluble proteins present in serum and plasma of the same monkeys have been measured using a multiplex assay produced by Rules-Based Medicine (RBM®) of Texas.

[2] = test system: INFγ; assay: ELISA of INFγ protein in monkey serum and plasma; details: monkey #A60055
From the text: FIG. 7. ELISA confirmation of INFγ protein level in monkey serum and plasma samples.
(§1) These peripheral biomarkers might allow safe use of cox-2 inhibitory compounds in clinics and selection of cox-2 inhibitory follow-up compounds without cardiovascular toxicity.

[3] = test system: CXCL10 (IP10); assay: ELISA of CXCL10 (IP10) protein in monkey serum and plasma; details: monkey #A60055
From the text: FIG. 6. ELISA confirmation of CXCL10 (IP10) protein level in monkey serum samples.
as §1

[4] = test system: veins (vascular tissue); assay: Histopathological evaluation of tissues of treated monkeys; details: animal A60055, 50 mg/kg/day oral gavage, two weeks
From the text: Administration of compounds.
Gene expression profiles.

## CS(=O)(=O)c1ccc(C2=C(c3ccccc3)C(=O)OC2)cc1 [Vioxx®, rofecoxib]
[1]
  level of INFγ inducible proteins in serum and plasma (multiplex assay): increased level
[2]
  INFγ protein expression by ELISA: Increased expression
[3]
  CXCL10 chemokine protein expression by ELISA: Increased expression
[4]
  histopathological vascular findings: focal vascular necrosis in the veins; also recorded: clear sign of vasculitis in veins

Reference: US9738932B2, “Biomarkers for cardiovascular side-effects induced by cox-2 inhibitory compounds” (FIRALIS SAS, priority 2005, dated 2017)
